One may read the IC50 as the midpoint of a concentration-inhibition curve. In general, Ki refers to the equilibrium dissociation constant of an inhibitor or competing ligand from its target.

We go through two compounds from PMC5951806, “Rapid labelling and covalent inhibition of intracellular native proteins using ligand-directed N-acyl-N-alkyl sulfonamide” (Nature Communications, 2018).

Series [1] relates to Hsp90. The settings on record: read-out: reported IC50; cited from earlier work.
In series [2] the test system is Hsp90-client proteins HER2, cRaf, Akt and pAkt. The experiment in a line: Western blotting of Hsp90 client proteins. The conditions noted are these: for Hsp90-client protein levels after washout: SKBR3, 3 h treatment, washing, further 21 h. (In general: Immunoblotting shows a protein as a band on a membrane.)
The test system of series [3] is SKBR3 cells. The experiment in a line: Cell viability assay (WST-8). The conditions noted are these: for cytotoxicity / growth inhibitory effect after washout: SKBR3, 3 h treatment, washing, further 69 h. Background: Formazan colour is commonly taken as a measure of viable cells.
For series [4], the system named is intracellular Hsp90. The settings on record: SKBR3 cells, pre-treated 1–10 µM for 3 h, washed, then 11 0.5 µM.
In series [5] the target is N-terminal domain of Hsp90α (Homo sapiens, UniProt P07900). The experiment in a line: In vitro labelling of N-terminal domain of Hsp90α (MALDI-TOF MS). The conditions noted are these: 6.4 µM protein, 10 µM 12, 37 °C; at Lys 58.
The target of series [6] is N-terminal ATP binding domain of Hsp90α (Homo sapiens, UniProt P07900).

For the compound `CC(C)NCCCn1c(Sc2cc3c(cc2I)OCO3)nc2c(N)ncnc21` [PU-H71], the IC50 in series [1] was […]. The “western blotting bands of Hsp90-client proteins relative to vehicle” value in series [2] (SKBR3, 1 μM, 24 h without washing) was “dramatically decreased”. In addition, the “Hsp90-client protein levels after washout” value in series [2] is “did not significantly affect the band intensities”. In series [3], the “cytotoxicity / growth inhibitory effect after washout” value is “almost abolished the cytotoxicity”. Further, the cytotoxicity result in series [3] (SKBR3, long-term incubation for 72 h) is given as “remarkable cytotoxicity”. Besides, in series [4], the “blocking of fluorescent labelling of Hsp90 by 11 after washout” value is listed as “failed to block the labelling reaction”.

In the case of `N#CCN(C(=O)CCCC(=O)NCCCn1c(Sc2cc3c(cc2I)OCO3)nc2c(N)ncnc21)S(=O)(=O)c1ccccc1` [compound 12], the “covalent attachment of the PU-H71 ligand to Hsp90 N-terminal domain” value in series [5] is “quantitative and single covalent attachment”. Also, the “Hsp90-client protein levels after washout” value in series [2] is reported as “decrease in Hsp90-client proteins was also observed”. In addition, the “cytotoxicity / growth inhibitory effect after washout” value in series [3] is listed as “clearly showed a growth inhibitory effect”. The “blocking of fluorescent labelling of Hsp90 by 11 after washout” value in series [4] is given as “strongly inhibited the fluorescent labelling”. Besides, the affinity in series [6] corresponds to a Ki of 62 nM. Moreover, the kinact/KI in series [6] (pH 7.2, read-out: second-order rate constant of the covalent inhibition) came to 29000 M⁻¹ s⁻¹.
